Where “and” joins values, the source holds several entries; their conditions need not be identical. Equal values may be shown once. Inconclusive results and toxic doses are left out. Rule as the data show it: active = T/C of 150% or more; inactive = T/C below 125%. Peptide text beside a SMILES is read from it. * marks the point of attachment. Cbz = O=C(OCc1ccccc1)*
Test system: L1210 leukemia ip in BDF1 mice, survival T/C
Assay: NCI In Vivo Anticancer Drug Screen. Data for tumor model L1210 Leukemia (intraperitoneal) in B6D2F1 (BDF1) mice
Conditions: endpoint: mean survival time, higher = longer survival
Summary of the method: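 In this screen, tumor-bearing mice given compound are compared to those given vehicle, and their survival values are reported as a treated-to-control quotient.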

[1] = dose: 100.0 mg/kg/injection, schedule: Q04DX003 (ip), vehicle: saline with Tween-80
[2] = dose: 200.0 mg/kg/injection, schedule: Q04DX003 (ip), vehicle: saline with Tween-80
[3] = dose: 400.0 mg/kg/injection, schedule: Q04DX003 (ip), vehicle: saline with Tween-80
[4] = dose: 100.0 mg/kg/injection, schedule: Q04DX003 (ip), vehicle: Klucel (hydroxypropylcellulose) (HPC)
[5] = dose: 200.0 mg/kg/injection, schedule: Q04DX003 (ip), vehicle: Klucel (hydroxypropylcellulose) (HPC)
[6] = dose: 400.0 mg/kg/injection, schedule: Q04DX003 (ip), vehicle: Klucel (hydroxypropylcellulose) (HPC)
[7] = dose: 25.0 mg/kg/injection, schedule: Q04DX003 (ip), vehicle: saline
[8] = dose: 50.0 mg/kg/injection, schedule: Q04DX003 (ip), vehicle: saline
[9] = dose: 100.0 mg/kg/injection, schedule: Q04DX003 (ip), vehicle: saline
[10] = dose: 100.0 mg/kg/injection, schedule: Q01DX001 (ip), vehicle: saline
[11] = dose: 100.0 mg/kg/injection, schedule: Q01DX009 (ip), vehicle: saline with Tween-80
[12] = dose: 200.0 mg/kg/injection, schedule: Q01DX009 (ip), vehicle: saline with Tween-80
[13] = dose: 400.0 mg/kg/injection, schedule: Q01DX009 (ip), vehicle: saline with Tween-80
[14] = dose: 200.0 mg/kg/injection, schedule: Q01DX001 (ip), vehicle: saline
[15] = dose: 400.0 mg/kg/injection, schedule: Q01DX001 (ip), vehicle: saline
[16] = dose: 100.0 mg/kg/injection, schedule: Q01DX001 (ip), vehicle: carboxymethylcellulose (CMC)
[17] = dose: 200.0 mg/kg/injection, schedule: Q01DX001 (ip), vehicle: carboxymethylcellulose (CMC)
[18] = dose: 400.0 mg/kg/injection, schedule: Q01DX001 (ip), vehicle: carboxymethylcellulose (CMC)
[19] = dose: 300.0 mg/kg/injection, schedule: Q01DX001 (ip), vehicle: carboxymethylcellulose (CMC)
[20] = dose: 100.0 mg/kg/injection, schedule: Q01DX001 (ip), vehicle: saline with Tween-80
[21] = dose: 200.0 mg/kg/injection, schedule: Q01DX001 (ip), vehicle: saline with Tween-80

Measured: T/C

CC(=O)OC1C(OC(C)=O)C(OS(=O)(=O)c2ccc(C)cc2)C(OC(C)=O)C(OS(=O)(=O)c2ccc(C)cc2)C1OC(C)=O (stereo not given)
inactive: [1] 97 % of control | [2] 92 % of control | [3] 95 % of control

Cc1c(C)c2c(C(=O)O)c3ccccc3nc2c2ccccc12
inactive: dose: 50.0 mg/kg/injection, schedule: Q01DX001 (ip), vehicle: alcohol 96 % of control | dose: 100.0 mg/kg/injection, schedule: Q01DX001 (ip), vehicle: alcohol 102 % of control | dose: 200.0 mg/kg/injection, schedule: Q01DX001 (ip), vehicle: alcohol 92 % of control | dose: 400.0 mg/kg/injection, schedule: Q01DX001 (ip), vehicle: alcohol 105 % of control

CCOC(=O)CC(c1cccc2ccccc12)c1cccc2ccc3ccccc3c12 (stereo not given)
inactive: [4] 92 % of control | [5] 86 % of control | [6] 91 % of control

CCOC(=O)NC1=C(NCCCl)C(=O)C(NC(=O)OCC)=C(NCCCl)C1=O
inactive: dose: 6.25 mg/kg/injection, schedule: Q04DX003 (ip), vehicle: saline 92 % of control | dose: 12.5 mg/kg/injection, schedule: Q04DX003 (ip), vehicle: saline 95 % of control | [7] 106 % of control | [8] 104 % of control | [9] 90 % of control

COCc1nnc2ncnc(OC)c2n1
inactive: dose: 25.0 mg/kg/injection, schedule: Q01DX009 (ip), vehicle: saline 106 % of control | [7] 100 % of control | dose: 50.0 mg/kg/injection, schedule: Q01DX009 (ip), vehicle: saline 93 % of control | [8] 102 % of control | [10] 98 % of control | dose: 100.0 mg/kg/injection, schedule: Q01DX009 (ip), vehicle: saline 88 % of control | [9] 98 % of control

CC(C)=CC(=O)Nc1cccc(O)c1
inactive: [11] 96 % of control | [12] 91 % of control | [13] 92 % of control

O=C(O)C1CCN1Cc1ccccc1 (stereo not given)
inactive: [9] 98 % of control | dose: 200.0 mg/kg/injection, schedule: Q04DX003 (ip), vehicle: saline 101 % of control | dose: 400.0 mg/kg/injection, schedule: Q04DX003 (ip), vehicle: saline 106 % of control

ClCc1c(CCl)c2c(c3c1CCCC3)CCCC2
inactive: [4] 100 % of control | [5] 100 % of control | [6] 103 % of control

c1cc2cc(c1)CCc1cccc(c1)CC2
inactive: [10] 100 % of control | [14] 106 % of control | [15] 94 % of control

ClCCC(c1ccccc1)N1CCCCC1 (stereo not given)
inactive: dose: 44.0 mg/kg/injection, schedule: Q01DX001 (ip), vehicle: saline 97 % of control and 106 % of control | dose: 66.0 mg/kg/injection, schedule: Q01DX001 (ip), vehicle: saline 96 % of control and 97 % of control | dose: 150.0 mg/kg/injection, schedule: Q01DX001 (ip), vehicle: saline 97 % of control and 92 % of control | [14] 93 % of control

O=C1O/C(=C2\OCc3ccccc32)c2ccccc21
inactive: dose: 50.0 mg/kg/injection, schedule: Q01DX001 (ip), vehicle: carboxymethylcellulose (CMC) 91 % of control | [16] 107 % of control | [17] 100 % of control | [18] 91 % of control

CCCOC(C[N+](=O)[O-])C(Cl)(Cl)Cl (stereo not given)
inactive: dose: 6.25 mg/kg/injection, schedule: Q01DX009 (ip), vehicle: saline with Tween-80 91 % of control | dose: 12.5 mg/kg/injection, schedule: Q01DX009 (ip), vehicle: saline with Tween-80 96 % of control | dose: 25.0 mg/kg/injection, schedule: Q01DX009 (ip), vehicle: saline with Tween-80 101 % of control | dose: 25.0 mg/kg/injection, schedule: Q04DX003 (ip), vehicle: saline with Tween-80 104 % of control

CC(=O)OC1COC(n2cnc3c(N4CCCCC4)nc(Cl)nc32)C(OC(C)=O)C1OC(C)=O (stereo not given)
inactive: [10] 102 % of control | [14] 96 % of control | [15] 102 % of control

CCC(CCc1ccccn1)C(=O)c1ccccc1 (stereo not given)
inactive: dose: 75.0 mg/kg/injection, schedule: Q01DX001 (ip), vehicle: carboxymethylcellulose (CMC) 100 % of control | dose: 150.0 mg/kg/injection, schedule: Q01DX001 (ip), vehicle: carboxymethylcellulose (CMC) 96 % of control | [19] 94 % of control

CC(NC(=O)OCc1ccccc1)C(=O)NC(CC(N)=O)C(=O)O (stereo not drawn) (Cbz-Ala-Asn-OH; configuration not given here)
inactive: dose: 25.0 mg/kg/injection, schedule: Q04DX002 (ip), vehicle: Klucel (hydroxypropylcellulose) (HPC) 95 % of control | dose: 50.0 mg/kg/injection, schedule: Q04DX002 (ip), vehicle: Klucel (hydroxypropylcellulose) (HPC) 95 % of control | dose: 100.0 mg/kg/injection, schedule: Q04DX002 (ip), vehicle: Klucel (hydroxypropylcellulose) (HPC) 95 % of control

CCOC(=O)C(C#N)CCC#N (stereo not given)
inactive: [11] 113 % of control | [12] 98 % of control | [13] 104 % of control

CCCCCCCCCCCCCCCCCCOB(OCCCCCCCCCCCCCCCCCC)OCCCCCCCCCCCCCCCCCC
inactive: [1] 108 % of control | [2] 108 % of control | [3] 97 % of control

[C-]#[N+]CCc1ccccc1
inactive: [20] 98 % of control | [21] 96 % of control

O=C(Nc1ccc(OCc2ccccc2)cc1)c1ccc([N+](=O)[O-])s1
inactive: dose: 400.0 mg/kg/injection, schedule: Q01DX005 (ip), vehicle: water 89 % of control

c1ccc(Oc2ccccc2)cc1
inactive: [1] 105 % of control | [2] 101 % of control | [3] 97 % of control

O=c1[nH][nH]c(=O)c2c1CCCC2
inactive: dose: 50.0 mg/kg/injection, schedule: Q01DX009 (ip), vehicle: saline with Tween-80 98 % of control | [11] 95 % of control | [12] 109 % of control

C[N+](C)(Cc1ccccc1)C1c2ccccc2-c2ccccc21
inactive: dose: 0.5 mg/kg/injection, schedule: Q04DX002 (ip), vehicle: Klucel (hydroxypropylcellulose) (HPC) 109 % of control | dose: 1.0 mg/kg/injection, schedule: Q04DX002 (ip), vehicle: Klucel (hydroxypropylcellulose) (HPC) 109 % of control | dose: 2.0 mg/kg/injection, schedule: Q04DX002 (ip), vehicle: Klucel (hydroxypropylcellulose) (HPC) 109 % of control

CCOC(=O)C(CN(CC)CC)c1ccccc1 (stereo not given)
inactive: dose: 88.8 mg/kg/injection, schedule: Q01DX001 (ip), vehicle: carboxymethylcellulose (CMC) 97 % of control and 105 % of control | [16] 118 % of control | dose: 133.0 mg/kg/injection, schedule: Q01DX001 (ip), vehicle: carboxymethylcellulose (CMC) 97 % of control and 98 % of control | [17] 105 % of control and 109 % of control | [19] 98 % of control and 106 % of control | [18] 115 % of control

CN1C(=O)NC(C)(C)C1=O
inactive: [10] 99 % of control | [14] 97 % of control | [15] 94 % of control

O=C(Nc1ccccc1C(F)(F)F)OCCSc1ccc(Cl)cc1
inactive: [11] 95 % of control | [12] 95 % of control | [13] 93 % of control

O=C1C=CC(=O)N1c1ccc(N2C(=O)C=CC2=O)cc1
inactive: [7] 110 % of control | [8] 107 % of control | [9] 100 % of control

COC(=O)c1ccc(N(C)C/C(CNc2nc(NC(C)=O)nc(SCc3ccccc3)c2[N+](=O)[O-])=N/O)cc1
inactive: [20] 92 % of control | [21] 86 % of control | dose: 400.0 mg/kg/injection, schedule: Q01DX001 (ip), vehicle: saline with Tween-80 96 % of control

Cc1cc(=O)[nH]c2nc(N)ccc12
inactive: dose: 50.0 mg/kg/injection, schedule: Q01DX001 (ip), vehicle: saline 101 % of control | [10] 93 % of control | [14] 93 % of control | [15] 101 % of control

Source: PubChem BioAssay AID248 (DTP/NCI, 2004)
